Results from ChEMBL document CHEMBL2203015, “Synthesis and biological evaluation of 5-aryloxypyrazole derivatives bearing a rhodanine-3-aromatic acid as potential antimicrobial agents” (Bioorg Med Chem Lett, 2012).
In brackets after ≈: the same amount, converted by molar mass. Activity calls are given as the source filed them. No cut-off for these calls is given here.

Experiments:
Staphylococcus aureus [1] = experiment: Antibacterial activity against quinolone-resistant Staphylococcus aureus CCARM 3519 at 64 ug/ml incubated for 24 hrs serial dilution method; assay type: functional, organism-based
Staphylococcus aureus [2] = experiment: Antibacterial activity against quinolone-resistant Staphylococcus aureus CCARM 3505 at 64 ug/ml incubated for 24 hrs serial dilution method; assay type: functional, organism-based
Staphylococcus aureus [3] = experiment: Antibacterial activity against multidrug-resistant Staphylococcus aureus CCARM 3506 at 64 ug/ml incubated for 24 hrs serial dilution method; assay type: functional, organism-based
Staphylococcus aureus [4] = experiment: Antibacterial activity against multidrug-resistant Staphylococcus aureus CCARM 3167 at 64 ug/ml incubated for 24 hrs serial dilution method; assay type: functional, organism-based
Escherichia coli [5] = experiment: Antibacterial activity against Escherichia coli 1356 at 64 ug/ml incubated for 24 hrs serial dilution method; assay type: functional, organism-based
Staphylococcus aureus [6] = experiment: Antibacterial activity against Staphylococcus aureus KCTC 503 at 64 ug/ml incubated for 24 hrs serial dilution method; assay type: functional, organism-based
Staphylococcus aureus [7] = experiment: Antibacterial activity against Staphylococcus aureus KCTC 209 at 64 ug/ml incubated for 24 hrs serial dilution method; assay type: functional, organism-based
Staphylococcus aureus [8] = experiment: Antibacterial activity against Staphylococcus aureus RN 4220 at 64 ug/ml incubated for 24 hrs serial dilution method; assay type: functional, organism-based
Staphylococcus aureus [9] = experiment: Potency index, ratio of MIC for norfloxacin to MIC for compound against quinolone-resistant Staphylococcus aureus CCARM 3519 incubated for 24 hrs serial dilution method; assay type: functional
Staphylococcus aureus [10] = experiment: Potency index, ratio of MIC for norfloxacin to MIC for compound against quinolone-resistant Staphylococcus aureus CCARM 3505 incubated for 24 hrs serial dilution method; assay type: functional
Staphylococcus aureus [11] = experiment: Potency index, ratio of MIC for norfloxacin to MIC for compound against multidrug-resistant Staphylococcus aureus CCARM 3506 incubated for 24 hrs serial dilution method; assay type: functional
Staphylococcus aureus [12] = experiment: Potency index, ratio of MIC for norfloxacin to MIC for compound against multidrug-resistant Staphylococcus aureus CCARM 3167 incubated for 24 hrs serial dilution method; assay type: functional
Staphylococcus aureus [13] = experiment: Antibacterial activity against quinolone-resistant Staphylococcus aureus CCARM 3519 incubated for 24 hrs serial dilution method; assay type: functional; details: CCARM 3519, 24 h
Staphylococcus aureus [14] = experiment: Antibacterial activity against quinolone-resistant Staphylococcus aureus CCARM 3505 incubated for 24 hrs serial dilution method; assay type: functional; details: CCARM 3505, 24 h
Staphylococcus aureus [15] = experiment: Antibacterial activity against multidrug-resistant Staphylococcus aureus CCARM 3506 incubated for 24 hrs serial dilution method; assay type: functional; details: CCARM 3506, 24 h
Staphylococcus aureus [16] = experiment: Antibacterial activity against multidrug-resistant Staphylococcus aureus CCARM 3167 incubated for 24 hrs serial dilution method; assay type: functional; details: CCARM 3167, 24 h
Escherichia coli [17] = experiment: Antibacterial activity against Escherichia coli 1356 incubated for 24 hrs serial dilution method; assay type: functional; details: Escherichia coli, 1356, 24 h
Staphylococcus aureus [18] = experiment: Antibacterial activity against Staphylococcus aureus KCTC 503 incubated for 24 hrs serial dilution method; assay type: functional; details: KCTC 503, 24 h
Staphylococcus aureus [19] = experiment: Antibacterial activity against Staphylococcus aureus KCTC 209 incubated for 24 hrs serial dilution method; assay type: functional; details: KCTC 209, 24 h
Staphylococcus aureus [20] = experiment: Antibacterial activity against Staphylococcus aureus RN 4220 incubated for 24 hrs serial dilution method; assay type: functional; details: RN 4220, 24 h

Row | SMILES | Activity (Staphylococcus aureus [1]) | Activity (Staphylococcus aureus [2]) | Activity (Staphylococcus aureus [3]) | Activity (Staphylococcus aureus [4]) | Activity (Escherichia coli [5]) | Activity (Staphylococcus aureus [6]) | Activity (Staphylococcus aureus [7]) | Activity (Staphylococcus aureus [8]) | Ratio (Staphylococcus aureus [9]) | Ratio (Staphylococcus aureus [10]) | Ratio (Staphylococcus aureus [11]) | Ratio (Staphylococcus aureus [12]) | MIC (Staphylococcus aureus [13]) [µg/mL] | MIC (Staphylococcus aureus [14]) [µg/mL] | MIC (Staphylococcus aureus [15]) [µg/mL] | MIC (Staphylococcus aureus [16]) [µg/mL] | MIC (Escherichia coli [17]) [µg/mL] | MIC (Staphylococcus aureus [18]) [µg/mL] | MIC (Staphylococcus aureus [19]) [µg/mL] | MIC (Staphylococcus aureus [20]) [µg/mL]
1 | Cc1nn(-c2ccccc2)c(Oc2ccc3ccccc3c2)c1C=O | inactive | inactive | inactive | inactive | inactive | inactive | inactive | inactive | – | – | – | – | – | – | – | – | – | – | – | –
2 | Cc1ccc(Oc2c(C=O)c(C)nn2-c2ccccc2)cc1 | inactive | inactive | inactive | inactive | inactive | inactive | inactive | inactive | – | – | – | – | – | – | – | – | – | – | – | –
3 | COc1ccc(Oc2c(C=O)c(C)nn2-c2ccccc2)cc1 | inactive | inactive | inactive | inactive | inactive | inactive | inactive | inactive | – | – | – | – | – | – | – | – | – | – | – | –
4 | Cc1nn(-c2ccccc2)c(Oc2cccc(Cl)c2)c1C=O | inactive | inactive | inactive | inactive | inactive | inactive | inactive | inactive | – | – | – | – | – | – | – | – | – | – | – | –
5 | Cc1nn(-c2ccccc2)c(Oc2ccccc2)c1C=O | inactive | inactive | inactive | inactive | inactive | inactive | inactive | inactive | – | – | – | – | – | – | – | – | – | – | – | –
6 | Cc1nn(-c2ccccc2)c(Oc2ccc(Cl)cc2)c1C=O | inactive | inactive | inactive | inactive | inactive | inactive | inactive | inactive | – | – | – | – | – | – | – | – | – | – | – | –
7 | Cc1cccc(Oc2c(C=O)c(C)nn2-c2ccccc2)c1 | inactive | inactive | inactive | inactive | inactive | inactive | inactive | inactive | – | – | – | – | – | – | – | – | – | – | – | –
8 | Cc1nn(-c2ccccc2)c(Oc2c(Cl)cccc2Cl)c1C=O | inactive | inactive | inactive | inactive | inactive | inactive | inactive | inactive | – | – | – | – | – | – | – | – | – | – | – | –
9 | Cc1nn(-c2ccccc2)c(Oc2ccc(Br)cc2)c1C=O | inactive | inactive | inactive | inactive | inactive | inactive | inactive | inactive | – | – | – | – | – | – | – | – | – | – | – | –
10 | COc1ccccc1Oc1c(C=O)c(C)nn1-c1ccccc1 | inactive | inactive | inactive | inactive | inactive | inactive | inactive | inactive | – | – | – | – | – | – | – | – | – | – | – | –
11 | Cc1nn(-c2ccccc2)c(Oc2cccc(C(F)(F)F)c2)c1C=O | inactive | inactive | inactive | inactive | inactive | inactive | inactive | inactive | – | – | – | – | – | – | – | – | – | – | – | –
12 | Cc1ccccc1Oc1c(/C=C2\SC(=S)N([C@@H](Cc3ccccc3)C(=O)O)C2=O)c(C)nn1-c1ccccc1 | – | – | – | – | – | – | – | – | 4 | 4 | 2 | 2 | 8 (≈ 14.4 µM) | 8 (≈ 14.4 µM) | 8 (≈ 14.4 µM) | 4 (≈ 7.2 µM) | > 64 | > 64 | > 64 | 4 (≈ 7.2 µM)
13 | Cc1nn(-c2ccccc2)c(Oc2ccccc2)c1/C=C1\SC(=S)N([C@@H](Cc2ccccc2)C(=O)O)C1=O | – | – | – | – | – | – | – | – | 4 | 4 | 2 | 2 | 8 (≈ 14.8 µM) | 8 (≈ 14.8 µM) | 4 (≈ 7.38 µM) | 4 (≈ 7.38 µM) | > 64 | > 64 | > 64 | 8 (≈ 14.8 µM)
14 | Cc1ccc(Oc2c(C=O)c(C)nn2-c2ccccc2)c(C)c1 | inactive | inactive | inactive | inactive | inactive | inactive | inactive | inactive | – | – | – | – | – | – | – | – | – | – | – | –
15 | Cc1nn(-c2ccccc2)c(Oc2ccccc2Cl)c1C=O | inactive | inactive | inactive | inactive | inactive | inactive | inactive | inactive | – | – | – | – | – | – | – | – | – | – | – | –
16 | Cc1nn(-c2ccccc2)c(Oc2cccc(Cl)c2)c1/C=C1\SC(=S)N([C@@H](Cc2ccccc2)C(=O)O)C1=O | – | – | – | – | – | – | – | – | 4 | 4 | 2 | 2 | 8 (≈ 13.9 µM) | 4 (≈ 6.94 µM) | 4 (≈ 6.94 µM) | 4 (≈ 6.94 µM) | > 64 | > 64 | > 64 | 4 (≈ 6.94 µM)
17 | Cc1ccccc1Oc1c(C=O)c(C)nn1-c1ccccc1 | inactive | inactive | inactive | inactive | inactive | inactive | inactive | inactive | – | – | – | – | – | – | – | – | – | – | – | –
18 | Cc1nn(-c2ccccc2)c(Oc2c(Cl)cccc2Cl)c1/C=C1\SC(=S)N([C@@H](Cc2ccccc2)C(=O)O)C1=O | – | – | – | – | – | – | – | – | 4 | 4 | 2 | 2 | 8 (≈ 13.1 µM) | 8 (≈ 13.1 µM) | 8 (≈ 13.1 µM) | 4 (≈ 6.55 µM) | > 64 | > 64 | > 64 | 4 (≈ 6.55 µM)
19 | COc1ccc(Oc2c(/C=C3\SC(=S)N([C@@H](Cc4ccccc4)C(=O)O)C3=O)c(C)nn2-c2ccccc2)cc1 | – | – | – | – | – | – | – | – | 4 | 4 | 2 | 2 | 8 (≈ 14 µM) | 8 (≈ 14 µM) | 4 (≈ 7 µM) | 4 (≈ 7 µM) | > 64 | > 64 | > 64 | 8 (≈ 14 µM)
20 | Cc1nn(-c2ccccc2)c(Oc2ccccc2Cl)c1/C=C1\SC(=S)N([C@@H](Cc2ccccc2)C(=O)O)C1=O | – | – | – | – | – | – | – | – | 4 | 4 | 2 | 2 | 8 (≈ 13.9 µM) | 8 (≈ 13.9 µM) | 8 (≈ 13.9 µM) | 8 (≈ 13.9 µM) | > 64 | > 64 | > 64 | 8 (≈ 13.9 µM)
21 | Cc1ccc(Oc2c(/C=C3\SC(=S)N([C@@H](Cc4ccccc4)C(=O)O)C3=O)c(C)nn2-c2ccccc2)cc1 | – | – | – | – | – | – | – | – | 4 | 4 | 2 | 2 | 4 (≈ 7.2 µM) | 4 (≈ 7.2 µM) | 8 (≈ 14.4 µM) | 4 (≈ 7.2 µM) | > 64 | > 64 | > 64 | 4 (≈ 7.2 µM)
22 | Cc1cccc(Oc2c(/C=C3\SC(=S)N([C@@H](Cc4ccccc4)C(=O)O)C3=O)c(C)nn2-c2ccccc2)c1 | – | – | – | – | – | – | – | – | 4 | 4 | 2 | 2 | 8 (≈ 14.4 µM) | 4 (≈ 7.2 µM) | 4 (≈ 7.2 µM) | 4 (≈ 7.2 µM) | > 64 | > 64 | > 64 | 4 (≈ 7.2 µM)
23 | COc1ccccc1Oc1c(/C=C2\SC(=S)N([C@@H](Cc3ccccc3)C(=O)O)C2=O)c(C)nn1-c1ccccc1 | – | – | – | – | – | – | – | – | 4 | 4 | 2 | 2 | 8 (≈ 14 µM) | 8 (≈ 14 µM) | 8 (≈ 14 µM) | 8 (≈ 14 µM) | > 64 | > 64 | > 64 | 16 (≈ 28 µM)
24 | Cc1nn(-c2ccccc2)c(Oc2cccc(C(F)(F)F)c2)c1/C=C1\SC(=S)N([C@@H](Cc2ccccc2)C(=O)O)C1=O | – | – | – | – | – | – | – | – | 4 | 4 | 2 | 2 | 8 (≈ 13.1 µM) | 4 (≈ 6.56 µM) | 4 (≈ 6.56 µM) | 4 (≈ 6.56 µM) | > 64 | > 64 | > 64 | 4 (≈ 6.56 µM)
